# In patent US20250115598A1 (Anaxis Pharma Pty Ltd, priority 2021, published 2025):
# Legend:
# [1] = target: human MLKL (full length) (Homo sapiens (Human), UniProt Q8NB16); assay: KINOMEscan binding assay, human MLKL (full length); settings: KINOMEscan, Table 21; read-out: Human MLKL (full-length) (KD)
# Summary of the method: (§1)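 In this assay, compounds displace DNA- or phage-tagged kinase from an immobilized ligand, and eluted kinase is quantified by qPCR.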
# [2] = target: human RIPK1 (Homo sapiens (Human), UniProt Q13546); assay: KINOMEscan binding assay, human RIPK1; settings: Table 21
# Sequence of human RIPK1 (Q13546 whole entry): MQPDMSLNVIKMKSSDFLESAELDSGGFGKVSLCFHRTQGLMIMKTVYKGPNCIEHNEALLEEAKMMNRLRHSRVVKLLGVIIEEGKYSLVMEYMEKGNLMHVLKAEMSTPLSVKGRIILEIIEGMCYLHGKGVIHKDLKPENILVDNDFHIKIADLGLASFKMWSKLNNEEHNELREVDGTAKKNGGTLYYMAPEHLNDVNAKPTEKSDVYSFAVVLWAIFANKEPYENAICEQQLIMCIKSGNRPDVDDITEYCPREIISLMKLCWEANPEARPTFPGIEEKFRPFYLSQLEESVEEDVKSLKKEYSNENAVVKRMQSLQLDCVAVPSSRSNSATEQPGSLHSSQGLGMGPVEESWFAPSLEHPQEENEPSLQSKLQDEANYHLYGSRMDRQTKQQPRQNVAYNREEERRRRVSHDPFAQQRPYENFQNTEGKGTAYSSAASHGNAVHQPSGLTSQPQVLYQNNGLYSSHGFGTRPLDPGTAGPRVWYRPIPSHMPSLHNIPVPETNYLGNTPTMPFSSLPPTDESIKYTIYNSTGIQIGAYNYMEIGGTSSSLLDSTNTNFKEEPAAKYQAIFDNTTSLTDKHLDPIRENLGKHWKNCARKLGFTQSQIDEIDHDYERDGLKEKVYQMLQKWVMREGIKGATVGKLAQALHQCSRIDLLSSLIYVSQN
# Summary of the method: as §1
# [3] = target: human RIPK3 (Homo sapiens (Human), UniProt Q9Y572); assay: KINOMEscan binding assay, human RIPK3; settings: Table 21
# Sequence of human RIPK3 (Q9Y572 whole entry): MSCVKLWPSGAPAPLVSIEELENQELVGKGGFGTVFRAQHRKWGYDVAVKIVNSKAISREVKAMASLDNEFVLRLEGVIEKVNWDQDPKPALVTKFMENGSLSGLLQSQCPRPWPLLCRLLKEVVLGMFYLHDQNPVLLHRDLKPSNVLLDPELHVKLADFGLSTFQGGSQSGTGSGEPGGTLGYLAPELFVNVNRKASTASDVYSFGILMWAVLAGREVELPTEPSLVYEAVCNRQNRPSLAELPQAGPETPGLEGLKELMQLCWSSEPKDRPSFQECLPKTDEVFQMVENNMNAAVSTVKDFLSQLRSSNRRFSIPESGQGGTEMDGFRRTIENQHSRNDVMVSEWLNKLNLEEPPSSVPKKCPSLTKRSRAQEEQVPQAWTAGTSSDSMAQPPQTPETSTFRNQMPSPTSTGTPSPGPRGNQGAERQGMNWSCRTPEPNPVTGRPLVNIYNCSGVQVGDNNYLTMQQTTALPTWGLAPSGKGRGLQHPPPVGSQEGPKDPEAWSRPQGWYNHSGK
# Summary of the method: as §1
# Sequence of human MLKL (full length) (Q8NB16 whole entry): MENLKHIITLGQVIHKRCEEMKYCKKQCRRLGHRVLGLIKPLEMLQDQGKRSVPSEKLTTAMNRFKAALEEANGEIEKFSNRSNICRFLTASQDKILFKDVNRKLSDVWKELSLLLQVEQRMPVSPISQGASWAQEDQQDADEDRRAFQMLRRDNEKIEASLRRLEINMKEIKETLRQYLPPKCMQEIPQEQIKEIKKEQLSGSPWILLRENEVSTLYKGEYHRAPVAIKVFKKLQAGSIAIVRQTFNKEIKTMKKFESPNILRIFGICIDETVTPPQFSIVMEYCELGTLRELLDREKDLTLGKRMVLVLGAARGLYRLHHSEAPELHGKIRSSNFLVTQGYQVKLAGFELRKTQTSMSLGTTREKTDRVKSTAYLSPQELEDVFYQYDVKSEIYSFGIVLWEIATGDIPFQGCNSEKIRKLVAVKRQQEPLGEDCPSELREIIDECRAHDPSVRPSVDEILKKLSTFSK
smiles,measurement,setting,value
"C[C@H](Oc1cc(-c2nn(C)c3c(-c4cnn(C5CN(CC(F)(F)F)C5)c4)cnc(N)c23)ccc1NS(=O)(=O)C(F)F)c1ccc(F)cc1 [Compound 77, (S)-N-(4-(4-amino-1-methyl-7-(1-(1-(2,2,2-trifluoroethyl)azetidin-3-yl)-1H-pyrazol-4-yl)-1H-pyrazolo[4,3-c]pyridin-3-yl)-2-(1-(4-fluorophenyl)ethoxy)phenyl)-1,1-difluoromethanesulfonamide]",Kd,[1],< 0.001 µM
same,Kd,[2],> 10 µM
same,Kd,[3],> 10 µM
"Cn1nc(-c2ccc(NS(=O)(=O)C(F)F)c(OCC3CCCCC3)c2)c2c(N)ncc(-c3cnn(C4CCOCC4)c3)c21 [Compound 150, N-(4-(4-amino-1-methyl-7-(1-(tetrahydro-2H-pyran-4-yl)-1H-pyrazol-4-yl)-1H-pyrazolo[4,3-c]pyridin-3-yl)-2-(cyclohexyl-methoxy)phenyl)-1,1-difluoromethane-sulfonamide]",Kd,[1],< 0.001 µM
same,Kd,[2],> 10 µM
same,Kd,[3],> 10 µM
"Cc1ccc(-c2cnc(N)c3c(-c4ccc(NS(=O)(=O)C(F)F)c(O[C@@H](C)c5ccc(F)cc5)c4)nn(C)c23)cn1 [Compound 26, (S)-N-(4-(4-amino-1-methyl-7-(6-methylpyridin-3-yl)-1H-pyrazolo[4,3-c]pyridin-3-yl)-2-(1-(4-fluorophenyl)ethoxy)phenyl)-1,1-difluoromethanesulfonamide]",Kd,[1],< 0.001 µM
same,Kd,[2],> 10 µM
same,Kd,[3],> 10 µM
"C[C@H](Oc1cc(-c2nn(C)c3c(-c4cccnc4)cnc(N)c23)ccc1NS(=O)(=O)C(F)F)c1ccc(F)cc1 [Compound 25, (S)-N-(4-(4-amino-1-methyl-7-(pyridin-3-yl)-1H-pyrazolo[4,3-c]pyridin-3-yl)-2-(1-(4-fluorophenyl)ethoxy)phenyl)-1,1-difluoromethanesulfonamide]",Kd,[1],< 0.001 µM
same,Kd,[2],> 10 µM
same,Kd,[3],> 10 µM
"C[C@H](Oc1cc(-c2nn(C)c3c(-c4cnn(CCN5CC(C)(C)C5)c4)cnc(N)c23)ccc1NS(=O)(=O)C(F)F)c1ccc(F)cc1 [Compound 75, (S)-N-(4-(4-amino-7-(1-(2-(3,3-dimethylazetidin-1-yl)ethyl)-1H-pyrazol-4-yl)-1-methyl-1H-pyrazolo[4,3-c]pyridin-3-yl)-2-(1-(4-fluorophenyl)ethoxy)phenyl)-1,1-difluoromethanesulfonamide]",Kd,[1],< 0.001 µM
same,Kd,[2],> 10 µM
same,Kd,[3],> 10 µM
"C[C@H](Oc1cc(-c2cnn3c(-c4cnn(C)c4)cnc(N)c23)ccc1NS(=O)(=O)C(F)F)c1ccc(F)cc1 [Compound 35, (S)-N-(4-(4-amino-7-(1-methyl-1H-pyrazol-4-yl)pyrazolo[1,5-a]pyrazin-3-yl)-2-(1-(4-fluorophenyl)ethoxy)phenyl)-1,1-difluoromethane-sulfonamide]",Kd,[1],< 0.001 µM
same,Kd,[2],> 10 µM
same,Kd,[3],> 10 µM
"CC(C)N1CC(n2cc(-c3cnc(N)c4c(-c5ccc(NS(=O)(=O)C(F)F)c(O[C@@H](C)c6ccc(F)cc6)c5)nn(C)c34)cn2)C1 [Compound 76, (S)-N-(4-(4-amino-7-(1-(1-isopropylazetidin-3-yl)-1H-pyrazol-4-yl)-1-methyl-1H-pyrazolo[4,3-c]pyridin-3-yl)-2-(1-(4-fluorophenyl)ethoxy)phenyl)-1,1-difluoromethanesulfonamide]",Kd,[1],< 0.001 µM
same,Kd,[2],> 10 µM
same,Kd,[3],> 10 µM
"Cc1cc(-c2cnc(N)c3c(-c4ccc(NS(=O)(=O)C(F)F)c(O[C@@H](C)c5ccc(F)cc5)c4)nn(C)c23)ccn1 [Compound 24, (S)-N-(4-(4-amino-1-methyl-7-(2-methylpyridin-4-yl)-1H-pyrazolo[4,3-c]pyridin-3-yl)-2-(1-(4-fluorophenyl)ethoxy)phenyl)-1,1-difluoromethanesulfonamide]",Kd,[1],< 0.001 µM
same,Kd,[2],> 10 µM
same,Kd,[3],> 10 µM
"Nc1ncc(-c2cnn(CCO)c2)c2occ(-c3ccc(NS(=O)(=O)C(F)F)c(OCc4ccc(F)cc4)c3)c12 [Compound 6, N-(4-(4-amino-7-(1-(2-hydroxyethyl)-1H-pyrazol-4-yl)furo[3,2-c]pyridin-3-yl)-2-((4-fluorobenzyl)oxy)phenyl)-1,1-difluoro-methanesulfonamide]",Kd,[1],< 0.001 µM
same,Kd,[2],> 10 µM
same,Kd,[3],> 10 µM
"C[C@H](Oc1cc(-c2cnn3c(-c4cnn(CCO)c4)cnc(N)c23)ccc1NS(=O)(=O)C(F)F)c1ccc(F)cc1 [Compound 37, (S)-N-(4-(4-amino-7-(1-(2-hydroxyethyl)-1H-pyrazol-4-yl)pyrazolo[1,5-a]pyrazin-3-yl)-2-(1-(4-fluorophenyl)ethoxy)phenyl)-1,1-difluoromethane-sulfonamide]",Kd,[1],< 0.001 µM
same,Kd,[2],> 10 µM
same,Kd,[3],> 10 µM
"C[C@H](Oc1cc(-c2nn(C)c3c(-c4cnc(N5CCOCC5)nc4)cnc(N)c23)ccc1NS(=O)(=O)C(F)F)c1ccc(F)cc1 [Compound 110, (S)-N-(4-(4-amino-1-methyl-7-(2-morpholinopyrimidin-5-yl)-1H-pyrazolo[4,3-c]pyridin-3-yl)-2-(1-(4-fluorophenyl)ethoxy)phenyl)-1,1-difluoromethanesulfonamide]",Kd,[1],< 0.001 µM
same,Kd,[2],> 10 µM
same,Kd,[3],> 10 µM
"C[C@H](Oc1cc(-c2nn(C)c3c(-c4cnn(C5CCNCC5)c4)cnc(N)c23)ccc1NS(=O)(=O)C(F)F)c1ccc(F)cc1 [Compound 59, N-(4-{4-amino-1-methyl-7-[1-(piperidin-4-yl)-1H-pyrazol-4-yl]-1H-pyrazolo[4,3-c]pyridin-3-yl}-2-[(1 S)-1-(4-fluorophenyl)ethoxy]phenyl)-1,1-difluoromethanesulfonamide]",Kd,[1],< 0.001 µM
same,Kd,[2],> 10 µM
same,Kd,[3],> 10 µM
"C[C@H](Oc1cc(-c2nn(C)c3c(-c4ccc5[nH]c(=O)n(C)c5c4)cnc(N)c23)ccc1NS(=O)(=O)C(F)F)c1ccc(F)cc1 [Compound 160, (S)-N-(4-(4-amino-1-methyl-7-(3-methyl-2-oxo-2,3-dihydro-1H-benzo[d]imidazol-5-yl)-1H-pyrazolo[4,3-c]pyridin-3-yl)-2-(1-(4-fluorophenyl)ethoxy)phenyl)-1,1-difluoromethanesulfonamide]",Kd,[1],< 0.001 µM
same,Kd,[2],> 10 µM
same,Kd,[3],> 10 µM
"C[C@H](Oc1cc(-c2nn(C)c3c(-c4cnn(C5CN(C)C5)c4)cnc(N)c23)ccc1NS(=O)(=O)C(F)F)c1ccc(F)cc1 [Compound 92, (S)-N-(4-(4-amino-1-methyl-7-(1-(1-methylazetidin-3-yl)-1H-pyrazol-4-yl)-1H-pyrazolo[4,3-c]pyridin-3-yl)-2-(1-(4-fluorophenyl)ethoxy)phenyl)-1,1-difluoromethanesulfonamide]",Kd,[1],< 0.001 µM
same,Kd,[2],> 10 µM
same,Kd,[3],> 10 µM
"CC(C)N(C)C(=O)C(C)n1cc(-c2cnc(N)c3c(-c4ccc(NS(=O)(=O)C(F)F)c(O[C@@H](C)c5ccc(F)cc5)c4)nn(C)c23)cn1 (stereo partly drawn) [Compound 81, 2-(4-(4-amino-3-(4-((difluoromethyl)sulfonamido)-3-((S)-1-(4-fluorophenyl)ethoxy)phenyl)-1-methyl-1H-pyrazolo[4,3-c]pyridin-7-yl)-1H-pyrazol-1-yl)-N-isopropyl-N-methylpropanamide]",Kd,[1],< 0.001 µM
same,Kd,[2],> 10 µM
same,Kd,[3],> 10 µM
"[2H]C([2H])([2H])N1CCC(n2cc(-c3cnc(N)c4c(-c5ccc(NS(=O)(=O)C(F)F)c(O[C@@H](C)c6ccc(F)cc6)c5)nn(C)c34)cn2)CC1 [Compound 103, (S)-N-(4-(4-amino-1-methyl-7-(1-(1-(methyl-d3)piperidin-4-yl)-1H-pyrazol-4-yl)-1H-pyrazolo[4,3-c]pyridin-3-yl)-2-(1-(4-fluorophenyl)ethoxy)phenyl)-1,1-difluoromethanesulfonamide]",Kd,[1],< 0.001 µM
same,Kd,[2],> 10 µM
same,Kd,[3],> 10 µM
"COCCn1cc(-c2cnc(N)c3c(-c4ccc(NS(=O)(=O)C(F)F)c(O[C@@H](C)c5ccc(F)cc5)c4)nn(C)c23)cn1 [Compound 29, (S)-N-(4-(4-amino-7-(1-(2-methoxyethyl)-1H-pyrazol-4-yl)-1-methyl-1H-pyrazolo[4,3-c]pyridin-3-yl)-2-(1-(4-fluorophenyl)ethoxy)phenyl)-1,1-difluoromethanesulfonamide]",Kd,[1],< 0.001 µM
same,Kd,[2],> 10 µM
same,Kd,[3],> 10 µM
"C[C@H](Oc1cc(-c2nn(C)c3c(-c4cnn(C5C[C@H]6CNC[C@H]6C5)c4)cnc(N)c23)ccc1NS(=O)(=O)C(F)F)c1ccc(F)cc1 (stereo partly drawn) [Compound 163, N-(4-(4-amino-1-methyl-7-(1-((3aR,6aS)-octahydrocyclo-penta[c]pyrrol-5-yl)-1H-pyrazol-4-yl)-1H-pyrazolo[4,3-c]pyridin-3-yl)-2-((S)-1-(4-fluoropohenyl)eth-oxy)phenyl)-1,1-difluoromethane-sulfonamide]",Kd,[1],< 0.001 µM
same,Kd,[2],> 10 µM
same,Kd,[3],> 10 µM
"Nc1n[nH]c2nccc(-c3ccc(NS(=O)(=O)C(F)F)c(OCc4ccc(F)cc4)c3)c12 [Compound 66, N-(4-(3-Amino-1H-pyrazolo[3,4-b]pyridin-4-yl)-2-((4-fluorophenyl)methoxy)phenyl)-1,1-difluoromethanesulfonamide]",Kd,[1],< 0.001 µM
same,Kd,[2],> 10 µM
same,Kd,[3],> 10 µM
